According to patent EP1247803A2, “Indolinone compounds suitable for modulation of protein kinases” (Sugen, Inc., priority 1996, dated 1998):

Legend:
PDGF-R = PDGF-R (Homo sapiens, UniProt P09619); test: PDGF-R ELISA; assay type: cell-based
From the text: A PDGF-R ELISA is described in International Patent Publication No. WO 96/40116, published December 19, 1996 by Tang et al.

EGFR = target: T1, EGFR (Homo sapiens, UniProt P00533); test: EGFR ELISA assay (in vitro kinase activity, EGFR captured from A431 cell lysate); assay type: biochemical; design: concentration or dose not given beside the values
T1 construct: Add 7 ug A431 cell lysate per well (EGFR source); endogenous in cells; host or cells: A431
T1 sequence (P00533 25-1210): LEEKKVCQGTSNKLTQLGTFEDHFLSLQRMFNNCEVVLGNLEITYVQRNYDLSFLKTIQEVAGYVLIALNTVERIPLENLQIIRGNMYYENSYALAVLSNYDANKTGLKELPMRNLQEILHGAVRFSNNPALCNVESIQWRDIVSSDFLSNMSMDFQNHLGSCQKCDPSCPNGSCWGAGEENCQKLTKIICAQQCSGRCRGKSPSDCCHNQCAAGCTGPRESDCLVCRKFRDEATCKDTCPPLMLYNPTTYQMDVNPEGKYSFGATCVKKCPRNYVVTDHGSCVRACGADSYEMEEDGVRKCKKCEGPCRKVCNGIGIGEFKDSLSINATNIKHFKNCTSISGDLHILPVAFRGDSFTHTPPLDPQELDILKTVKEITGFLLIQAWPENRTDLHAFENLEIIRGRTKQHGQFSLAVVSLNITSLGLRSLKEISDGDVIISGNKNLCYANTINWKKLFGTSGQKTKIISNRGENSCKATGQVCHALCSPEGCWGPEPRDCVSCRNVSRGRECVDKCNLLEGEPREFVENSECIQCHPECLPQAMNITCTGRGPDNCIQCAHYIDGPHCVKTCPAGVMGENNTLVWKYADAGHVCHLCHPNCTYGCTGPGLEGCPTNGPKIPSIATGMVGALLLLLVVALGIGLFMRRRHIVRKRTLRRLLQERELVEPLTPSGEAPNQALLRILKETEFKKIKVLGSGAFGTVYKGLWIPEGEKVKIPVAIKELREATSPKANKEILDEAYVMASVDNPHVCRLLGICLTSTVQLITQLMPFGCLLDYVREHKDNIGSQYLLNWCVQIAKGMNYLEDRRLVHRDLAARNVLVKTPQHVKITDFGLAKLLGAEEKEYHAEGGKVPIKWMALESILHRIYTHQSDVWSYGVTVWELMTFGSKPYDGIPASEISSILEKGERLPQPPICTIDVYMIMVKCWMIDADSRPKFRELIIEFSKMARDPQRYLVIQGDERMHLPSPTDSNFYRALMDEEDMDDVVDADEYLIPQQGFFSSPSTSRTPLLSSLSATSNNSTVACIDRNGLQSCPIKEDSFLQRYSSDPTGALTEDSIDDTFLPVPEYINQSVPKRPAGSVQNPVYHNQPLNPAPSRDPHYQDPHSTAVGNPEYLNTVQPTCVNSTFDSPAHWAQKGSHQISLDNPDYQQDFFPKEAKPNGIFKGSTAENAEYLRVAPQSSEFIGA
Outline: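 EGFR from A431 lysate was captured on anti-EGFR antibody-coated plates and preincubated with compounds for 30 min. Autophosphorylation ran 5 min with 3 uM ATP and 5 mM MnCl2 (final), stopped with 20 mM EDTA. Phosphotyrosine was detected by anti-pTyr ELISA with ABTS/H2O2, read at 410 nm.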

MET = MET biochemical kinase assay; design: species or system human; concentration or dose not given beside the values
Outline: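 Human MET was captured from cell lysates onto ELISA plates via goat anti-rabbit Fc and rabbit polyclonal antibody to the MET cytoplasmic domain. After washing, test compounds and kinase buffer with ATP and divalent metal ions were added. Phosphotyrosine was detected with HRP-conjugated anti-phosphotyrosine antibody and TMB colorimetric read-out.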

PDGF-R, sequence (P09619 33-1106, species assumed): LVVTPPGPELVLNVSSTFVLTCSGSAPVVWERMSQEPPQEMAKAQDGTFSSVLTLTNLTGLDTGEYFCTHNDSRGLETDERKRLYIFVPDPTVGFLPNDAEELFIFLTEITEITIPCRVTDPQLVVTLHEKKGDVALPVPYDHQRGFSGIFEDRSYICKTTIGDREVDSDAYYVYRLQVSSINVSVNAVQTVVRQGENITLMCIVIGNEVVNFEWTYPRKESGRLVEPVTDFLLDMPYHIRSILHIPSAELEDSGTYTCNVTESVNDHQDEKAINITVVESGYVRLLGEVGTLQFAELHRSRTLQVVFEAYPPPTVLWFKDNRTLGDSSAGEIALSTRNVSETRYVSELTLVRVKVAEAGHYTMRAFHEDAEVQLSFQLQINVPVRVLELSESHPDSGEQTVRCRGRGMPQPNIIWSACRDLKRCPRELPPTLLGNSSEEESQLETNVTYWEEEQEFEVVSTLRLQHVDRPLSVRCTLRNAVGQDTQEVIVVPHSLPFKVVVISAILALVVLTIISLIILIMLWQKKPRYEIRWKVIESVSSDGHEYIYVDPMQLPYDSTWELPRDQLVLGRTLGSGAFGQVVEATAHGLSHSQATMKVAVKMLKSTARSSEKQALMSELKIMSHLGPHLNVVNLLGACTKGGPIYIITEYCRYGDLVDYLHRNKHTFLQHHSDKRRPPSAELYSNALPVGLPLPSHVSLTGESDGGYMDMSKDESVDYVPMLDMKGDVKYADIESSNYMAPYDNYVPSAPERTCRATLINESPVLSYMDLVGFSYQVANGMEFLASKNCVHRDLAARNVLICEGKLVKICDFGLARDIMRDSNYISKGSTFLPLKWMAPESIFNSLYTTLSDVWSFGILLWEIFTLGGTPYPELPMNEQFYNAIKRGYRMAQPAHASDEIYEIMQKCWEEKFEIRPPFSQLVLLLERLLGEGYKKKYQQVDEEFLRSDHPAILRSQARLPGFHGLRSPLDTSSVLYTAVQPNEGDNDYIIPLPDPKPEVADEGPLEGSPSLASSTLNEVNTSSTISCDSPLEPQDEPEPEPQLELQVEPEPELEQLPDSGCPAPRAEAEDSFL

| Compound | PDGF Kinase %Inhibition (PDGF-R) | Biochem EGFR %Inhibition (EGFR) | Met Kinase % Inhibition (MET) |
| --- | --- | --- | --- |
| Cc1c(Br)ccc2c1C(=Cc1cc3ccccc3nc1Cl)C(=O)N2 [10730/C08] | 8.5% | 24.3% | 56.5% |
| COc1cc(OC)c(OC)cc1C=C1C(=O)Nc2c(Br)cc(Br)cc21 [10730/A03] | -11.2% | 34.4% | 62.3% |
| CSc1ccc(C=C2C(=O)Nc3ccc(CCCl)cc32)cc1 [10729/G04] | 1.6% | 52.9% | 18.2% |
| COC(=O)c1[nH]c(C)c(C=C2C(=O)Nc3ccc(I)cc32)c1C(=O)OC [10718/B07] | – | 9.9% | 53.7% |
| CC(=O)n1cc(C=C2C(=O)Nc3c(Br)cc(Br)cc32)c2ccccc21 [10730/A05] | 2.8% | 18.6% | 42.7% |
| COc1ccc(C=C2C(=O)Nc3ccc(I)cc32)c(OC)c1OC [10730/B02] | 5.4% | 10.4% | 66.3% |
| O=C1Nc2ccc(S(=O)(=O)Nc3ccc(C(F)(F)F)cc3)cc2C1=Cc1ccc(N2CCCC2)cc1 [10729/E10] | 11.8% | 50.3% | 7.5% |
| Cc1cc(C=C2C(=O)Nc3c(Br)cc(Br)cc32)oc1C [10730/A11] | -6.4% | 56.4% | 91.0% |
| CC(=O)n1cc(C=C2C(=O)Nc3ccc(I)cc32)c2ccccc21 [10730/B05] | -2.9% | 8.5% | 71.1% |
| O=C1Nc2ccc(I)cc2C1=Cc1cc2ccccc2nc1Cl [10730/B08] | 0.2% | 48.4% | 91.8% |
| COc1cc(C=C2C(=O)Nc3ccc(S(=O)(=O)N4CCOCC4)cc32)cc(OC)c1OC [10730/F04] | 28.7% | -4.8% | 36.0% |
| O=C1Nc2c(Br)cc(Br)cc2C1=Cc1coc2ccc(Cl)cc2c1=O [10730/A06] | 6.3% | 6.7% | 61.0% |
| COc1cc(C=C2C(=O)Nc3ccc(Br)c(C)c32)cc(OC)c1OC [10730/C04] | 15.5% | 0.1% | 43.2% |
| COC1CC(C=C2C(=O)Nc3c(Br)cc(Br)cc32)C(OC)O1 (stereo not drawn) [10730/A10] | 1.0% | 56.1% | 68.7% |
| Cc1cc(C=C2C(=O)Nc3ccc(Br)c(C)c32)oc1C [10730/C11] | 16.4% | 38.4% | 66.6% |
| CCOC(=O)c1c(C)[nH]c(C=C2C(=O)Nc3ccc(Br)c(C)c32)c1C [10718/C02] | – | -21.9% | 29.6% |
| CC(=O)n1cc(C=C2C(=O)Nc3ccc(S(=O)(=O)N4CCOCC4)cc32)c2ccccc21 [10730/F05] | 19.5% | -16.3% | 23.5% |
| Cc1c(Br)ccc2c1C(=Cc1coc3c(Br)cc(Br)cc3c1=O)C(=O)N2 [10730/C09] | 18.1% | 28.2% | 42.9% |
| O=C1Nc2ccc(I)cc2C1=Cc1ccc(Cl)c([N+](=O)[O-])c1 [10718/B08] | – | 28.9% | 63.4% |
| CC(=O)n1cc(C=C2C(=O)Nc3ccc(S(=O)(=O)Nc4ccc(C(F)(F)F)cc4)cc32)c2ccccc21 [10730/E05] | 28.7% | 15.8% | 49.0% |

| Compound | PDGF Kinase %Inhibition (PDGF-R) | Biochem EGFR %Inhibition (EGFR) | Met Kinase % Inhibition (MET) |
| --- | --- | --- | --- |
| Cc1cc(C=C2C(=O)Nc3ccc(I)cc32)oc1C [10730/B11] | -13.9% | 70.2% | 81.7% |
| COc1ccc(C=C2C(=O)Nc3c(Br)cc(Br)cc32)c(OC)c1OC [10730/A02] | -23.1% | 27.5% | 39.5% |
| O=C1Nc2ccc(I)cc2C1=Cc1coc2c(Br)cc(Br)cc2c1=O [10730/B09] | 15.1% | 14.2% | 70.6% |
| Cc1ccsc1C=C1C(=O)Nc2ccc(CCCl)cc21 [10729/G05] | 9.9% | 4.4% | 22.6% |
| COC1CC(C=C2C(=O)Nc3ccc(S(=O)(=O)Nc4ccc(C(F)(F)F)cc4)cc32)C(OC)O1 (stereo not drawn) [10730/E10] | 39.6% | 9.3% | 63.6% |
| O=C1Nc2ccc(S(=O)(=O)Nc3ccc(C(F)(F)F)cc3)cc2C1=Cc1coc2ccc(Cl)cc2c1=O [10730/E06] | 26.0% | 1.5% | 52.8% |
| CNS(=O)(=O)c1ccc2c(c1)C(=Cc1coc3c(Br)cc(Br)cc3c1=O)C(=O)N2 [10730/D09] | -1.6% | 45.1% | 59.1% |
| COc1cc(OC)c(OC)cc1C=C1C(=O)Nc2ccc(S(=O)(=O)Nc3ccc(C(F)(F)F)cc3)cc21 [10730/E03] | 14.6% | 65.3% | 53.3% |
| Cc1c(Br)ccc2c1C(=Cc1ccc3ccccc3c1O)C(=O)N2 [10718/C04] | – | 14.8% | 93.1% |
| CNS(=O)(=O)c1ccc2c(c1)C(=Cc1cc(OC)c(OC)cc1OC)C(=O)N2 [10730/D03] | 19.0% | 9.9% | 34.2% |
| O=C1Nc2ccc(I)cc2C1=Cc1coc2ccc(Cl)cc2c1=O [10730/B06] | 7.6% | 25.0% | 71.3% |
| CNS(=O)(=O)c1ccc2c(c1)C(=Cc1cc3ccccc3nc1Cl)C(=O)N2 [10730/D08] | 12.9% | 44.9% | -13.6% |
| COC1CC(C=C2C(=O)Nc3ccc(Br)c(C)c32)C(OC)O1 (stereo not drawn) [10730/C10] | 44.4% | 20.5% | 40.3% |
| COc1cc(OC)c(OC)cc1C=C1C(=O)Nc2ccc(S(=O)(=O)N3CCOCC3)cc21 [10730/F03] | 1.5% | 10.4% | -0.6% |
| O=C1Nc2c(Br)cc(Br)cc2C1=Cc1ccc(Br)cc1 [10717/A08] | – | 39.1% | 21.7% |
| COc1cc(Br)c(O)c(C=C2C(=O)Nc3ccc(Br)c(C)c32)c1 [10718/C03] | – | 41.3% | 95.7% |
| Cc1c(O)ccc(C=C2C(=O)Nc3ccc(I)cc32)c1O [10718/B09] | – | -0.8% | 52.9% |
| O=C1Nc2ccc(I)cc2C1=Cc1ccc([N+](=O)[O-])o1 [10718/B11] | – | 30.3% | 69.6% |
| O=C1Nc2ccc(I)cc2C1=Cc1ccco1 [10718/B10] | – | 13.7% | 83.6% |
